Laboratory results from patent US20100286145A1, “ISOPHTHALAMIDE DERIVATIVES INHIBITING BETA-SECRETASE ACTIVITY” (CoMentis, Inc., priority 2007, published 2010).
Read-outs that look alike come from different tables or passages of the source.

Tests used:
memapsin 2 = memapsin 2 (Homo sapiens, UniProt P56817); test: Inhibition of memapsin 2 beta-secretase activity (fluorogenic substrate FS-2); assay type: biochemical; details: memapsin 2, pH 4, 37° C., read-out: M2Ki
Procedure, shortened: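 Memapsin 2 pre-incubated 20 min with compound at pH 4, 37° C, then FS-2 substrate (MCA-SEVNLDAEFK-DNP, APP Swedish cleavage site) added. Rate of fluorescence increase compared with uninhibited controls, fitted to a tight-binding inhibition model.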

[1] = tested on: Aβ production in Chinese hamster ovary cells that over-express human APP695 with the London and Swedish mutations; test: Cellular Aβ IC50 determination (Aβ40 sandwich ELISA); assay type: cell-based; details: Cricetulus griseus
Procedure, shortened: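 CHO cells overexpressing human APP695 with London and Swedish mutations, seeded at 10% confluency, treated with compounds up to about 4 μM final (0.4% DMSO). Secreted Aβ40 measured by sandwich ELISA relative to control and fitted to a 4-parameter IC50 model.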

[2] = cellular Aβ production, read-out: IC50

memapsin 2, sequence (P56817 46-501): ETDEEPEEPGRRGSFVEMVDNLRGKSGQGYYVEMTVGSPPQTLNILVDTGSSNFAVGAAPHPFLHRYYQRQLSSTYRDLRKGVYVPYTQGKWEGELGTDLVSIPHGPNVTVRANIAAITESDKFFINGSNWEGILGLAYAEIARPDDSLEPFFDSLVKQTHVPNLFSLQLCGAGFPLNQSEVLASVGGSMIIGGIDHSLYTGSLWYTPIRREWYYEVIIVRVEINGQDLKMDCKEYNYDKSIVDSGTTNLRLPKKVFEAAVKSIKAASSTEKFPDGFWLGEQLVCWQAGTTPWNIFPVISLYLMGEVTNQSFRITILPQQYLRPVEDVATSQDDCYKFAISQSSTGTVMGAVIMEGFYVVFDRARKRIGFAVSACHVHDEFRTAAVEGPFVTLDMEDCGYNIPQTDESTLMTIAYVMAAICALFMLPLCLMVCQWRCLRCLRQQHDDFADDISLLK

| Ki (memapsin 2; fluorogenic substrate FS-2) [nM] | IC50 [1, 2] [nM] | Ki (memapsin 2; 20 minutes pre-incubation) [nM] | SMILES | IC50 [1] [nM] |
| --- | --- | --- | --- | --- |
| – | < 1000 | 301 to 500 | COc1cccc(CNC[C@@H](O)[C@H](Cc2ccccc2)NC(=O)c2cccc(C(=O)N(C)Cc3ccc(C)o3)c2)c1 [Compound 18, N1-((2S,3R)-3-hydroxy-4-(3-methoxybenzylamino)-1-phenylbutan-2-yl)-N3-methyl-N3-((5-methylfuran-2-yl)methyl)isophthalamide] | – |
| – | < 1000 | < 300 | Cc1csc(CN(C)C(=O)c2cccc(C(=O)N[C@@H](Cc3ccccc3)[C@H](O)CNCc3cccc(N(C)C)c3)c2)n1 [Compound 129, N1-((2S,3R)-4-(3-(dimethylamino)benzylamino)-3-hydroxy-1-phenylbutan-2-yl)-N3-methyl-N3-((4-methylthiazol-2-yl)methyl)isophthalamide] | – |
| – | < 1000 | < 300 | C=C(C)c1cccc(CNC[C@@H](O)[C@H](Cc2ccccc2)NC(=O)c2cccc(C(=O)N(C)Cc3nc(C)cs3)c2)c1 [Compound 168, N1-((2S,3R)-3-hydroxy-1-phenyl-4-(3-(prop-1-en-2-yl)benzylamino)butan-2-yl)-N3-methyl-N3-((4-methylthiazol-2-yl)methyl)isophthalamide] | – |
| – | < 1000 | < 300 | Cc1csc(CN(C)C(=O)c2cccc(C(=O)N[C@@H](Cc3ccccc3)[C@H](O)CNCc3cncc(C(C)(C)C)c3)c2)n1 [Compound 190, N1-((2S,3R)-4-((5-tert-butylpyridin-3-yl)methylamino)-3-hydroxy-1-phenylbutan-2-yl)-N3-methyl-N3-((4-methylthiazol-2-yl)methyl)isophthalamide] | – |
| – | < 1000 | < 300 | Cc1csc(CN(C(=O)c2cccc(C(=O)N[C@@H](Cc3ccccc3)[C@H](O)CNCc3cccc(OC(F)(F)F)c3)c2)C2CC2)n1 [Compound 51, N1-cyclopropyl-N3-((2S,3R)-3-hydroxy-1-phenyl-4-(3-(trifluoromethoxy)benzylamino)butan-2-yl)-N1-((4-methylthiazol-2-yl)methyl)isophthalamide] | – |
| – | < 1000 | < 300 | CNc1cc(CNC[C@@H](O)[C@H](Cc2ccccc2)NC(=O)c2cccc(C(=O)N(C)Cc3nc(C)cs3)c2)cc(C(C)C)c1 [Compound 133, N1-((2S,3R)-3-hydroxy-4-(3-isopropyl-5-(methylamino)benzylamino)-1-phenylbutan-2-yl)-N3-methyl-N3-((4-methylthiazol-2-yl)methyl)isophthalamide] | – |
| – | < 1000 | < 300 | COc1cc(C(=O)N[C@@H](Cc2ccccc2)[C@H](O)CNCc2cccc(C(F)(F)F)c2)cc(C(=O)N(C)Cc2nc(C)cs2)c1 [Compound 31, N1-((2S,3R)-3-hydroxy-1-phenyl-4-(3-(trifluoromethyl)benzylamino)butan-2-yl)-5-methoxy-N3-methyl-N3-((4-methylthiazol-2-yl)methyl)isophthalamide] | – |

The next lines start with the compound.

| SMILES | Ki (memapsin 2; fluorogenic substrate FS-2) [nM] | IC50 [1, 2] [nM] | Ki (memapsin 2; 20 minutes pre-incubation) [nM] | IC50 [1] [nM] |
| --- | --- | --- | --- | --- |
| Cc1csc(CN(C)C(=O)c2cc(C(=O)N[C@@H](Cc3ccccc3)[C@H](O)CNCc3cncc(C(C)C)c3)cc(-c3nccn3C)c2)n1 [Compound 271, N1-((2S,3R)-3-hydroxy-4-((5-isopropylpyridin-3-yl)methylamino)-1-phenylbutan-2-yl)-N3-methyl-5-(1-methyl-1H-imidazol-2-yl)-N3-((4-methylthiazol-2-yl)methyl)isophthalamide] | < 300 | < 1000 | – | – |
| Cc1csc(CN(C)C(=O)c2cccc(C(=O)N[C@@H](Cc3ccccc3)[C@H](O)CN[C@H](C)c3cncc(C(C)C)c3)c2)n1 [Compound 206, N1-((2S,3R)-3-hydroxy-4-((R)-1-(5-isopropylpyridin-3-yl)ethylamino)-1-phenylbutan-2-yl)-N3-methyl-N3-((4-methylthiazol-2-yl)methyl)isophthalamide] | – | < 1000 | < 300 | – |
| Cc1csc(CN(C)C(=O)c2cc(C(=O)N[C@@H](Cc3ccccc3)[C@H](O)CNCc3cncc(C(C)(C)F)c3)cc(-c3ccoc3)c2)n1 [Compound 270, N1-((2S,3R)-4-((5-(2-fluoropropan-2-yl)pyridin-3-yl)methylamino)-3-hydroxy-1-phenylbutan-2-yl)-5-(furan-3-yl)-N3-methyl-N3-((4-methylthiazol-2-yl)methyl)isophthalamide] | < 300 | < 1000 | – | – |
| COc1cccc(CNC[C@@H](O)[C@H](Cc2ccccc2)NC(=O)c2cccc(C(=O)N(C)Cc3ccn(C)n3)c2)c1 [Compound 61, N1-((2S,3R)-3-hydroxy-4-(3-methoxybenzylamino)-1-phenylbutan-2-yl)-N3-methyl-N3-((1-methyl-1H-pyrazol-3-yl)methyl)isophthalamide] | – | 1000 to 5000 | < 300 | – |
| COc1cccc(CNC[C@@H](O)[C@H](Cc2ccccc2)NC(=O)c2cc(C(=O)N(C)Cc3nc(C)cs3)cc(-c3cccnc3)c2)c1 [Compound 189, N1-((2S,3R)-3-hydroxy-4-(3-methoxybenzylamino)-1-phenylbutan-2-yl)-N3-methyl-N3-((4-methylthiazol-2-yl)methyl)-5-(pyridin-3-yl)isophthalamide] | – | < 1000 | < 300 | – |
| Cc1csc(CN(C)C(=O)c2cc(C(=O)N[C@@H](Cc3ccccc3)[C@H](O)CNCc3cncc(C(C)C)c3)cc(-c3cnn(C)c3)c2)n1 [Compound 258, N1-((2S,3R)-3-hydroxy-4-((5-isopropylpyridin-3-yl)methylamino)-1-phenylbutan-2-yl)-N3-methyl-5-(1-methyl-1H-pyrazol-4-yl)-N3-((4-methylthiazol-2-yl)methyl)isophthalamide] | < 300 | < 1000 | – | – |
| Cc1csc(CN(C)C(=O)c2cc(C(=O)N[C@@H](Cc3ccccc3)[C@H](O)CNCc3cncc(C(C)(F)F)c3)cc(N(C)C)c2)n1 [Compound 253, N1-((2S,3R)-4-((5-(1,1-difluoroethyl)pyridin-3-yl)methylamino)-3-hydroxy-1-phenylbutan-2-yl)-5-(dimethylamino)-N3-methyl-N3-((4-methylthiazol-2-yl)methyl)isophthalamide] | < 300 | < 1000 | – | – |
| COP(=O)(OC)Oc1cc(CNC[C@@H](O)[C@H](Cc2ccccc2)NC(=O)c2cccc(C(=O)N(C)Cc3nc(C)cs3)c2)cc(C(C)C)c1 [Compound 255, 3-(((2R,3S)-2-hydroxy-3-(3-(methyl((4-methylthiazol-2-yl)methyl)carbamoyl)benzamido)-4-phenylbutylamino)methyl)-5-isopropylphenyl dimethyl phosphate] | < 300 | – | – | < 1000 |
| Cc1csc(CN(C)C(=O)c2cc(C(=O)N[C@@H](Cc3ccccc3)[C@H](O)CNCc3cncc(C(C)C)c3)cc(-c3cnccn3)c2)n1 [Compound 214, N1-((2S,3R)-3-hydroxy-4-((5-isopropylpyridin-3-yl)methylamino)-1-phenylbutan-2-yl)-N3-methyl-N3-((4-methylthiazol-2-yl)methyl)-5-(pyrazin-2-yl)isophthalamide] | < 300 | < 1000 | – | – |
| CN(Cc1nc(CF)cs1)C(=O)c1cccc(C(=O)N[C@@H](Cc2ccccc2)[C@H](O)CNCc2cncc(C(F)(F)F)c2)c1 [Compound 280, N1-((4-(fluoromethyl)thiazol-2-yl)methyl)-N3-((2S,3R)-3-hydroxy-1-phenyl-4-((5-(trifluoromethyl)pyridin-3-yl)methylamino)butan-2-yl)-N1-methylisophthalamide] | < 300 | < 1000 | – | – |
| Cc1csc(CN(C)C(=O)c2cc(C(=O)N[C@@H](Cc3ccccc3)[C@H](O)CNCc3cccc(C(F)(F)F)c3)cc(N3CCCC3=O)c2)n1 [Compound 233, N1-((2S,3R)-3-hydroxy-1-phenyl-4-(3-(trifluoromethyl)benzylamino)butan-2-yl)-N3-methyl-N3-((4-methylthiazol-2-yl)methyl)-5-(2-oxopyrrolidin-1-yl)isophthalamide] | < 300 | < 1000 | – | – |
| Cc1csc(CN(C)C(=O)c2cccc(C(=O)N[C@@H](Cc3cscn3)[C@H](O)CNCc3cncc(C(C)C)c3)c2)n1 [Compound 183, N1-((2S,3R)-3-hydroxy-4-((5-isopropylpyridin-3-yl)methylamino)-1-(thiazol-4-yl)butan-2-yl)-N3-methyl-N3-((4-methylthiazol-2-yl)methyl)isophthalamide] | – | 1000 to 5000 | 301 to 500 | – |
| Cc1csc(CN(C)C(=O)c2cc(C(=O)N[C@@H](Cc3ccccc3)[C@H](O)CNCc3cncc(C(C)C)c3)cc(-n3cccc3)c2)n1 [Compound 239, N1-((2S,3R)-3-hydroxy-4-((5-isopropylpyridin-3-yl)methylamino)-1-phenylbutan-2-yl)-N3-methyl-N3-((4-methylthiazol-2-yl)methyl)-5-(1H-pyrrol-1-yl)isophthalamide] | < 300 | < 1000 | – | – |
| Cc1csc(CN(C(=O)c2cc(C(=O)N[C@@H](Cc3ccccc3)[C@H](O)CNCc3cncc(C(C)C)c3)cc(-c3ncco3)c2)C2CC2)n1 [Compound 186, N1-cyclopropyl-N3-((2S,3R)-3-hydroxy-4-((5-isopropylpyridin-3-yl)methylamino)-1-phenylbutan-2-yl)-N1-((4-methylthiazol-2-yl)methyl)-5-(oxazol-2-yl)isophthalamide] | – | < 1000 | < 300 | – |
| Cc1csc(CN(C(=O)c2cccc(C(=O)N[C@@H](Cc3ccccc3)[C@H](O)CNCc3cncc(C(F)(F)F)c3)c2)C2CC2)n1 [Compound 59, N1-cyclopropyl-N3-((2S,3R)-3-hydroxy-1-phenyl-4-((5-(trifluoromethyl)pyridin-3-yl)methylamino)butan-2-yl)-N1-((4-methylthiazol-2-yl)methyl)isophthalamide] | – | < 1000 | < 300 | – |
